Results from article PMC3158675, “Effective inhibitors of the essential kinase PknB and their potential as anti-mycobacterial agents” (Tuberculosis (Edinburgh, Scotland), 2011).

Tested on: M. tuberculosis ompA mutant
Assay type: cell-based

SMILES: CC[C@H]1OC(=O)[C@H](C)[C@@H](O[C@H]2C[C@@](C)(OC)[C@@H](O)[C@H](C)O2)[C@H](C)[C@@H](O[C@@H]2O[C@H](C)C[C@H](N(C)C)[C@H]2O)[C@](C)(O)C[C@@H](C)C(=O)[C@H](C)[C@@H](O)[C@]1(C)O [erythromycin]
- Sensitivity of M. tuberculosis ompA mutant compared to wild type: slightly increased resistance

SMILES: CN[C@H](CC(C)C)C(=O)N[C@H]1C(=O)N[C@@H](CC(N)=O)C(=O)N[C@H]2C(=O)N[C@H]3C(=O)N[C@H](C(=O)N[C@H](C(=O)O)c4cc(O)cc(O)c4-c4cc3ccc4O)[C@H](O)c3ccc(c(Cl)c3)Oc3cc2cc(c3O[C@@H]2O[C@H](CO)[C@@H](O)[C@H](O)[C@H]2O[C@H]2C[C@](C)(N)[C@H](O)[C@H](C)O2)Oc2ccc(cc2Cl)[C@H]1O [vancomycin]
- Sensitivity of M. tuberculosis ompA mutant compared to wild type: slightly increased resistance
